Results on 6 compounds are retold here after paper PMC10318527, “Utilization of dietary mixed-linkage β-glucans by the Firmicute Blautia producta” (The Journal of Biological Chemistry, 2023).

In assay [1] the test system is BpGH16MLG (BPGH16). Kind of assay: Michaelis-Menten kinetics of BpGH16MLG on β-glucans (DNS assay). The settings on record: native BPGH16; DNS assay; pH 5.7, 37 °C. The class given is biochemical, Blautia producta ATCC 27340. Here is the method:
Then, reactions were terminated by boiling for 5 min. Enzymatic assays were determined with 3,5- dinitrosalicylic acid (DNS) assay ([85]). In brief, 0.05 g Na2SO3 and 1 g DNS were mixed in a 50 ml water-containing reagent bottle and stirred about 6 h using a magnetic stirrer. After that, 200 μl phenol was added and made up to 100 ml. A working solution of DNS was prepared by adding 50 μl glucose (20% (w/v) stock) in prepared 100 ml of reagent mixtures and immediately used for experiments without adding NaOH. 80 μl DNS reagent was added to the reaction mixtures and incubated at 100 °C for 10 min, followed by ice-cooling for 10 min. Consequently, recorded the developed color spectrophotometrically at 575 nm ([85]). A standard curve generated by different concentrations of maltose was used for determining released reducing sugars in each case.

For assay [2], the system named is B. producta ATCC 27340. On the set-up: method as in PMID 33043794. The settings on record: cited from earlier work.
Assay [3] concerns BpGH16MLG. Briefly: Initial screening of BpGH16MLG against substrates (TLC). The class given is biochemical, Blautia producta ATCC 27340. The settings on record: pH 5.7, 37 °C, 2 h. Here is the method:
After the appropriate incubation time, the reaction was terminated by boiling (5 min), and generated oligosaccharides were analyzed by thin layer chromatography (TLC). Typically, 1 μl of the reaction mixture was used for TLC analysis. TLC analysis was performed on Silica Gel 60 F254 (Merck), and produced sugars were visualized by spraying TLC with 5% H2SO4 in ethanol, followed by heating.

The target of assay [4] is T1, BpGH94MLG (Blautia producta, UniProt A0A7G5MNS2).
T1 sequence (A0A7G5MNS2 1-804): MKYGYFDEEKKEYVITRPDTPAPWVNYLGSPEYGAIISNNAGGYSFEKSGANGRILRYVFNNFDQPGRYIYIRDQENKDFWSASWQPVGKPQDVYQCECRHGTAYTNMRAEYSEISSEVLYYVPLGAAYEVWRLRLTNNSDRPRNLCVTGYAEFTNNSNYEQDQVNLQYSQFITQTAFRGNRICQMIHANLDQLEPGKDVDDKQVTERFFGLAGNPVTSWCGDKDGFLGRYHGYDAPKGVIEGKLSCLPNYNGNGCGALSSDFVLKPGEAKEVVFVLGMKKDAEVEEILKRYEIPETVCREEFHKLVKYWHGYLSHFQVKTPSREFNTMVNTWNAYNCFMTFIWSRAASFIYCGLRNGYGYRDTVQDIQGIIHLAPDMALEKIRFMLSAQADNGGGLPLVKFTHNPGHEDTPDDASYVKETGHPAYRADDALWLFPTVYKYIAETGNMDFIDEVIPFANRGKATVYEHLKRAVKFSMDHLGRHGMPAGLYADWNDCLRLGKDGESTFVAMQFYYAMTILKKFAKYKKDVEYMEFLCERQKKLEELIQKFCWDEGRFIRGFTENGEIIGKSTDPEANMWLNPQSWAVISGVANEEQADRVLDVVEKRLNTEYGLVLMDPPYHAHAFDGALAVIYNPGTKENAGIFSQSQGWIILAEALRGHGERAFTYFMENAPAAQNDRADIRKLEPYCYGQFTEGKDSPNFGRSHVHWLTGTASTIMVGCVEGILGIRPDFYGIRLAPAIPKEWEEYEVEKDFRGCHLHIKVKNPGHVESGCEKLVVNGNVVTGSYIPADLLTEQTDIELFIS
Briefly: Phosphorolysis kinetics of BpGH94MLG (PAHBAH assay). The class given is biochemical, Blautia producta ATCC 27340. Here is the method: (§1) TLC was used for analyzing enzymatic actions. […] Kinetics parameters for BpGH94MLG were determined with G4G3G, G4G4G3G and cellotriose, following a p-hydroxybenzoic acid hydrazide (PAHBAH) reducing sugar assay ([69]).

The target of assay [5] is BpGH3-AR8MLG (Blautia producta, UniProt A0ABX6J8C8). Type of assay: biochemical, Blautia producta ATCC 27340. The settings on record: for cleavage by BpGH3-AR8MLG (in words): TLC.
Description: (§2) 150 μl of a freshly prepared 8:2 mixture of reagent A (50 mM sodium sulfite, 0.3 M 4-hydroxybenzhydrazide and 0.6 M HCl) and reagent B (50 mM trisodium citrate, 10 mM CaCl2, 0.5 M NaOH) were added to 50 μl sample. The reaction cocktail was boiled for 10 min at 100 °C. After the reaction was cooled down, the absorbance was recorded at 410 nm using the SpectraMax i3x multi-mode microplate reader. A calibration curve with different concentrations of glucose (0, 2, 4, 8, 16, 40, 80, 100, 200, 300, and 500 μM) was employed for each experiment to calculate the released amount of glucose (reducing end equivalents). The same samples were also used for control measurement, and the control value was subtracted from test reading prior to calculate kinetics parameters. In all cases, the Km, Vmax, and kcat were analyzed on GraphPad Prism. Three independent replicates were used for each test. TLC analyses were used for understanding the enzymatic degradation profiles of various oligosaccharides.
Assay [6] addresses BpSBPMLG (Blautia producta, UniProt A0ABX6JB09). Briefly: Isothermal titration calorimetry of oligosaccharide binding to BpSBPMLG. More on the design: species or system Blautia producta ATCC 27340. Here is the method: The binding of β-(1,4), β-(1,3), and MLG-oligosaccharides to BpSBPMLG was measured at 25 °C in 10 mM sodium phosphate buffer (pH 7) using a MicroCal PEAQ-ITC (Malvern). The protein was extensively dialyzed against 10 mM sodium phosphate and all glycan ligands were also dissolved in the same buffer to minimize the heat of dilution. 13 injections of an oligosaccharide were titrated on BpSBPMLG present in the sample cell. Various preliminary titration setups were tried by changing amounts of protein (5–100 μM) and ligand (50 μM–10 mM) to get the best experimental conditions. Thermodynamic binding parameters [calculates binding affinity (Kd), stoichiometry (n), enthalpy (ΔH), Gibbs free energy change (ΔG), and entropy (ΔS)] were determined using the MicroCal PEAQ-ITC analysis software.

For assay [7], the target named is T2, BpGH3-X62MLG (Blautia producta, UniProt A0ABX6JIM0).
T2 sequence (A0ABX6JIM0 1-920): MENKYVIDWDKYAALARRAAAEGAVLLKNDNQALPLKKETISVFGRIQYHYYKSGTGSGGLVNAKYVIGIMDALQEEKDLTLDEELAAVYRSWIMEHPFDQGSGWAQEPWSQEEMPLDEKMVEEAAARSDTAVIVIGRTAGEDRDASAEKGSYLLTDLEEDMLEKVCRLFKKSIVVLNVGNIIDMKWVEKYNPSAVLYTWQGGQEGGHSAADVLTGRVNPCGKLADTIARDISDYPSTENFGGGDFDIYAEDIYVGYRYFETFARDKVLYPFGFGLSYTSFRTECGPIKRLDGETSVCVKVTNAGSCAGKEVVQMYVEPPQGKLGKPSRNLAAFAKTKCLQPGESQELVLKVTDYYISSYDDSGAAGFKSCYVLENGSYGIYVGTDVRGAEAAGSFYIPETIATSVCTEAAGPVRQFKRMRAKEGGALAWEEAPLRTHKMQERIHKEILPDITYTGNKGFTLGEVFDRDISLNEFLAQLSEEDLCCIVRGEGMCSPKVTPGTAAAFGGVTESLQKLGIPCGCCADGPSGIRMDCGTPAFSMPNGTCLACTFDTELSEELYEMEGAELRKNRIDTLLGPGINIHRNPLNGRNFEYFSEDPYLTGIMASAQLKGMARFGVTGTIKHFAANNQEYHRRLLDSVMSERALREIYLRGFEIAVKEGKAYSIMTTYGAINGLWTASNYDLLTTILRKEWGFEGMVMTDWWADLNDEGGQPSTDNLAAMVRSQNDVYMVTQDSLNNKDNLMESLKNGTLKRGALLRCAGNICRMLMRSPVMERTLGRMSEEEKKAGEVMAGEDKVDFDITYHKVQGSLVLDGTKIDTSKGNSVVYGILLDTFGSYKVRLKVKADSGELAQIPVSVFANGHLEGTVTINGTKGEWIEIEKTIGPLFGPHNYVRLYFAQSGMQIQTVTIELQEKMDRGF
Briefly: Hydrolysis kinetics of BpGH3-X62MLG (PAHBAH assay, TLC). The settings on record: for cleavage by BpGH3-X62MLG (in words): TLC.
Description: as §2

Assay [8] addresses T1, BpGH94MLG. Briefly: Phosphorolysis activity of BpGH94MLG on substrates (TLC). Type of assay: biochemical, Blautia producta ATCC 27340. The settings on record: inorganic phosphate, 37 °C. Here is the method:
as §1

For assay [9], the target named is β-mannooligosaccharide binding protein of Roseburia. More on the design: method as in PMID 30796211. The settings on record: cited from earlier work.
The test system of assay [10] is RaCDP. On the set-up: method as in PMID 23802549. The settings on record: phosphorolytic reaction; cited from earlier work.
Assay [11] relates to Rt/CtCDP. More on the design: method as in PMID 12153715. The settings on record: phosphorolytic reaction; cited from earlier work.
For assay [12], the system named is TaCDP. More on the design: method as in PMID 28687766. The settings on record: phosphorolytic reaction; cited from earlier work.
Assay [13] concerns B. producta ATCC 27340. Kind of assay: Growth of B. producta on β-glucans. The class given is cell-based, Blautia producta ATCC 27340. The settings on record: minimal medium containing 1% glucan. Here is the method:
Active culture of B. producta and culture conditions were maintained following the recently reported procedure ([31]). Once B. producta grew, cells were centrifuged, and the obtained supernatant was decanted. A pellet of cells was then washed three times with phosphate-buffered saline (PBS) and washed cells were suspended in 2 ml PBS. […] The growth assessment experiments were performed for 96 h, following our recently established protocol ([82]).

The mark [14] stands for this setting: ITC at 25 °C, 10 mM sodium phosphate pH 7.0.
[15] abbreviates: PAHBAH assay, 100 mM HEPES pH 6.5, 37 °C.

“And” between values parts separate entries of the source, which are not always exact repeats. Identical values can stand only once. Like-named read-outs stand apart in the source and are kept apart here.

Chain of BpSBPMLG (A0ABX6JB09 entry or part of it): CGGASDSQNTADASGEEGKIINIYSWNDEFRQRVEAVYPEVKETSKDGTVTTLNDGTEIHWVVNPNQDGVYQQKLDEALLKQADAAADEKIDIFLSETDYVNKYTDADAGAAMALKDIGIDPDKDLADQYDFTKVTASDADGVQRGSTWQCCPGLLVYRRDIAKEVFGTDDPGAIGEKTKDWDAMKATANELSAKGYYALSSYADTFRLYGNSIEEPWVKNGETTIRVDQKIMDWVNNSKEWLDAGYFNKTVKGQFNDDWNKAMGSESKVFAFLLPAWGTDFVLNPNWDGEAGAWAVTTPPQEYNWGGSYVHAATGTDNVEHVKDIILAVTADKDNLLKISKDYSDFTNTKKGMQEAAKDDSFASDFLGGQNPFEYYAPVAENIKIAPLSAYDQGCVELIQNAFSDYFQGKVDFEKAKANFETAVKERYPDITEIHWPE
Chain of BpGH3-AR8MLG (A0ABX6J8C8 entry or part of it): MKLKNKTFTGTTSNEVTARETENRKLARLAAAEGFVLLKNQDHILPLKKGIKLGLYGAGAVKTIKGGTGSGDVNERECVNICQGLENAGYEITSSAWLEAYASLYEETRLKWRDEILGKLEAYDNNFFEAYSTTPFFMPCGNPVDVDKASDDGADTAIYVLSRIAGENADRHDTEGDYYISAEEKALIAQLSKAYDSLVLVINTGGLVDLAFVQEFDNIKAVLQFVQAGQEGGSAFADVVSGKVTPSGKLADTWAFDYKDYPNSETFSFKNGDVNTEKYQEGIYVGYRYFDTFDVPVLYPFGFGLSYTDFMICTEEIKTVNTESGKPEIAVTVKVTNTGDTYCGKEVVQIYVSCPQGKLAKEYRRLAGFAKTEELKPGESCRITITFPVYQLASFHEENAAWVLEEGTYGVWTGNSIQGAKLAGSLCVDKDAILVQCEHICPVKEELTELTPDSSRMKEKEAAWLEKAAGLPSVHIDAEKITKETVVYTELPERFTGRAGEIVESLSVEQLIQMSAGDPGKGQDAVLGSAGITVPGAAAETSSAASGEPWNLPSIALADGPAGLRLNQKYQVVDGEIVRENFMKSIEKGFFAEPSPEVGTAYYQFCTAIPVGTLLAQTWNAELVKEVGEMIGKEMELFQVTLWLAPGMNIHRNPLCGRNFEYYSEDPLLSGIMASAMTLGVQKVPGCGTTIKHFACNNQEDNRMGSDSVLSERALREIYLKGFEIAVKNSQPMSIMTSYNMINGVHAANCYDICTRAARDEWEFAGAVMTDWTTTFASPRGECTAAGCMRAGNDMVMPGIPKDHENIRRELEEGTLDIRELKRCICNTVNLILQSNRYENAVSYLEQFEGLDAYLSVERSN

What is called Km is the substrate concentration at which the rate is half of its maximum. By kcat is commonly meant the number of substrate molecules converted per active site and unit of time at saturation. Consider Laminarin, for which, in assay [1], the Km was found to be 0.24 ± 0.03 mg/mL and the kcat amounted to 43 ± 0.6 s⁻¹. The “growth of B. producta on the glucan” value in assay [2] is “does not support the growth”. The “activity of BpGH16MLG on substrate (initial screening)” value (shortened to “activity of BpGH16MLG on substrate”) in assay [3] is recorded as “did cleave”.

What is called Kd is the constant that tells how readily two partners part at equilibrium. On to `OC[C@H]1O[C@@H](O[C@H]2[C@H](O)[C@@H](O)[C@H](O[C@H]3[C@H](O)[C@@H](CO)OC(O)[C@@H]3O)O[C@@H]2CO)[C@H](O)[C@@H](O)[C@@H]1O` (stereo partly drawn) [G4G3G, Glc-β-1-4-Glc-β-1-3-Glc], for which the “Km lower compared to cellotriose” value in assay [4] was “about 1.85 fold”. Besides, the “cleavage by BpGH3-AR8MLG (in words)” value in assay [5] is “cleaved”. The same compound showed a Kd in [6] of 1.01 µM. Moreover, in assay [6] (setting [14]), the “-TΔS^0” value was 4.4 kcal/mol, the “n (binding stoichiometry)” value is listed as 0.42 ± 0.01, the “ΔG^0” value was -8.18 kcal/mol and the ΔH was -12.6 ± 0.32 kcal/mol. Also, the “cleavage by BpGH3-X62MLG (in words)” value in assay [7] is on record as “cleaved”. In addition, in assay [8], the “phosphorolysis activity of BpGH94MLG (in words)” value is on record as “cleaved”.

`OC[C@H]1O[C@@H](O[C@H]2[C@H](O)[C@H](O)[C@H](O[C@H]3[C@H](O)[C@H](O)[C@H](O[C@H]4[C@H](O)[C@H](O)C(O)O[C@@H]4CO)O[C@@H]3CO)O[C@@H]2CO)[C@@H](O)[C@@H](O)[C@@H]1O` (stereo partly drawn) [mannotetraose]: the dissociation constant Kd in assay [9] is 3.89 µM.

For the compound `OC[C@H]1O[C@@H](O[C@H]2[C@H](O)[C@@H](O)[C@H](O[C@H]3[C@H](O)[C@@H](O)[C@H](O[C@H]4[C@H](O)[C@@H](CO)OC(O)[C@@H]4O)O[C@@H]3CO)O[C@@H]2CO)[C@H](O)[C@@H](O)[C@@H]1O` (stereo partly drawn) [G4G4G3G, Glc-β-1-4-Glc-β-1-4-Glc-β-1-3-Glc], in assay [4], the Km fold-change is ~0.75 fold, the “kcat/Km higher compared to G4G3G” value was 1.6 fold and the “kcat/Km higher compared to cellotriose” value is on record as 2.4 fold. For the same compound, the “cleavage by BpGH3-AR8MLG (in words)” value in assay [5] is recorded as “cleaved”. The compound also registered a Kd in [6] of 5.14 µM. Further, in assay [6] (setting [14]), the “-TΔS^0” value stood at 5.7 kcal/mol; binding was characterised by a dissociation constant (Kd) of 5.14 µM; the “n (binding stoichiometry)” value was 0.77 and 0.77 ± 0.02; the “ΔG^0” value was -7.22 kcal/mol. In assay [6] (setting [14]), the ΔH is -12.9 ± 0.85 kcal/mol. Also, in [7] (setting [15]), the kcat came out at 18 ± 0.3 s⁻¹. For the same compound, the “cleavage by BpGH3-X62MLG (in words)” value in assay [7] is “cleaved”.

As for `OC[C@H]1O[C@@H](O[C@H]2[C@H](O)[C@@H](O)[C@H](O[C@H]3[C@H](O)[C@@H](O)C(O)O[C@@H]3CO)O[C@@H]2CO)[C@H](O)[C@@H](O)[C@@H]1O` (stereo partly drawn) [Cellotriose], in [10], the Michaelis constant (Km) is 6060 µM and the kcat is 76.2 s⁻¹. Besides, in [11], the Michaelis-Menten constant (Km) was 810 µM and the turnover number (kcat) was 4 s⁻¹. Besides, in assay [5] (setting [15]), the Michaelis constant (Km) was found to be 260 ± 30 µM and the kcat was found to be 15 ± 0.2 s⁻¹. The “activity of BpGH16MLG on substrate” value in assay [3] is listed as “did not show activity”. For the same compound, the affinity in [6], expressed as Kd, was 1.74 µM. In assay [6] (setting [14]), the “-TΔS^0” value was 0.8 kcal/mol, the “n (binding stoichiometry)” value is reported as 0.77 ± 0.02, the “ΔG^0” value was -7.9 kcal/mol and the ΔH is -7.1 ± 0.31 kcal/mol. Also, in assay [12], the Km was 94 µM and the kcat was 0.28 s⁻¹. In addition, the “phosphorolysis activity of BpGH94MLG (in words)” value in assay [8] is on record as “cleaved”.

On to Lichenan, for which the “growth of B. producta on the glucan” value in [13] is recorded as “able to grow”. For the same compound, in assay [1], the Michaelis-Menten constant (Km) turned out to be 0.13 ± 0.02 mg/mL and the catalytic constant (kcat) turned out to be 36 ± 0.5 s⁻¹. Further, in assay [3], the “activity of BpGH16MLG on substrate” value is “did cleave”.
